This is an account of results in patent publication US20240317721A1, “PYRAZOLYL DERIVATIVES AS INHIBITORS OF THE KRAS MUTANT PROTEIN” (NOVARTIS AG, priority 2021, published 2024).

In general, IC50 refers to the concentration at which inhibition is half-maximal.

Molecules are shown by their SMILES. A value given as a limit tells only on which side of the number the result lay.

The target in this assay is KRasG12C (M1-K169, biotinylated on the N-terminus) (Homo sapiens (Human), UniProt P01116, G12C). The assay can be described thus: Covalent competition assay: scintillation proximity assay (SPA) quantifying covalent modification of KRASG12C. It counts as binding. To be noted: competition with radiolabeled covalent probe (Compound B/Compound A), 2 hours incubation, 10 nM KRasG12C. In a few lines:
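Test compounds compete with a radiolabeled covalent probe for modification of N-terminally biotinylated KRasG12C(M1-K169):GDP, final 10 nM protein, 25 nM radio-ligand, 475 nM unlabelled ligand, 2 h with agitation in 20 mM Tris-HCl pH 7.5, 150 mM NaCl, 0.1 mM MgCl2, 0.01% Tween-20.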
On the technique in general: In a scintillation proximity assay essentially only radioactivity close to the scintillant gives light.
As for `C=CC(=O)N1CC2(CC(n3nc(N4CCC(CN5CC6COCC6C5)CC4(C)C)c(-c4c(Cl)c(Cl)cc5[nH]ncc45)c3C)C2)C1` (single isomer, unassigned) [Example 226b, 1-(6-(4-(5,6-dichloro-1H-indazol-4-yl)-3-(2,2-dimethyl-4-((tetrahydro-1H-furo[3,4-c]pyrrol-5(3H)-yl)methyl)piperidin-1-yl)-5-methyl-1H-pyrazol-1-yl)-2-azaspiro[3.3]heptan-2-yl)prop-2-en-1-one], the IC50 was 1100 nM.

On to `C=CC(=O)N1CC2(CC(n3nc(N4CC[C@@H](CN5C[C@H](O)C[C@H]5COC)CC4(C)C)c(-c4c(Cl)c(Cl)cc5[nH]ncc45)c3C)C2)C1` (single isomer, unassigned) [Example 286b], for which the IC50 stood at 7 nM.

As for `C=CC(=O)N1CC2(CC(n3nc(N4CCN(C5COC5)C[C@]4(C)CCOC)c(-c4c(Cl)c(C)cc5[nH]ncc45)c3C)C2)C1` (single isomer, unassigned) [Example 86b], the IC50 was 8 nM. Regarding `C=CC(=O)N1CC2(CC(n3nc(N4CC[C@@H](CN5C[C@@H]6CN(C(C)=O)C[C@@H]6C5)CC4(C)C)c(-c4c(Cl)c(Cl)cc5[nH]ncc45)c3C)C2)C1` (single isomer, unassigned) [Example 295b], the IC50 was 6 nM. Consider `C=CC(=O)N1CC2(CC(n3nc(N4CC[C@@H](CN5CCCC56CN(C(C)=O)C6)CC4(C)C)c(-c4c(Cl)c(Cl)cc5[nH]ncc45)c3C)C2)C1` (single isomer, unassigned) [Example 276b], for which the IC50 is less than 5 nM. Next, `C=CC(=O)N1CC2(CC(n3nc(N4CCC(CN5CCS(=O)(=O)CC5)CC4(C)C)c(-c4c(Cl)c(Cl)cc5[nH]ncc45)c3C)C2)C1` (single isomer, unassigned) [Example 236b, 1-(6-(4-(5,6-dichloro-1H-indazol-4-yl)-3-(4-((1,1-dioxidothiomorpholino)methyl)-2,2-dimethylpiperidin-1-yl)-5-methyl-1H-pyrazol-1-yl)-2-azaspiro[3.3]heptan-2-yl)prop-2-en-1-one]: 2500 nM. Regarding `C=CC(=O)N1CC2(CC(n3nc(N4C5CCC4CN(C(C)=O)C5)c(-c4c(Cl)c(C)cc5[nH]ncc45)c3C)C2)C1` (single isomer, unassigned) [Example 57a, 1-(6-(3-(3-acetyl-3,8-diazabicyclo[3.2.1]octan-8-yl)-4-(5-chloro-6-methyl-1H-indazol-4-yl)-5-methyl-1H-pyrazol-1-yl)-2-azaspiro[3.3]heptan-2-yl)prop-2-en-1-one], the IC50 is 34700 nM.

`C=CC(=O)N1CC2(CC(n3nc(N4CCC(N(C)[C@@H]5CCOC5)CC4(C)C)c(-c4c(Cl)c(C)cc5[nH]ncc45)c3C)C2)C1` (single isomer, unassigned) [Example 84a]: the IC50 is more than 5000 nM.

Consider `C=CC(=O)N1CC2(CC(n3nc(N4CC[C@@H](CN5CCC[C@H]5C(=O)N(C)C)CC4(C)C)c(-c4c(Cl)c(Cl)cc5[nH]ncc45)c3C)C2)C1` (single isomer, unassigned) [Example 313a], for which the IC50 came out at 410 nM.

Take `C=CC(=O)N1CC2(CC(n3nc(N4CC[C@@H](CN5CC6(C5)CN(C)C(=O)N6C)CC4(C)C)c(-c4c(Cl)c(Cl)cc5[nH]ncc45)c3C)C2)C1` (single isomer, unassigned) [Example 296b]: the IC50 worked out at 6 nM. As to `CC#CC(=O)N1CC2(CC(n3nc(N4CCN(C5COC5)CC45CCC5)c(-c4c(Cl)c(C)cc5[nH]ncc45)c3C)C2)C1` (single isomer, unassigned) [Example 78a, 1-(6-(4-(5-chloro-6-methyl-1H-indazol-4-yl)-5-methyl-3-(8-(oxetan-3-yl)-5,8-diazaspiro[3.5]nonan-5-yl)-1H-pyrazol-1-yl)-2-azaspiro[3.3]heptan-2-yl)but-2-yn-1-one], the IC50 was found to be 1300 nM.
